BindingDB's records for doi:10.1021/jm000119i (Rensselaer Polytechnic Institute, 2000)

Assay: Binding affinity to displace radioligand [3H]naltrindole on Opioid receptor delta 1 in guinea pig membranes.
For `CN(C)c1ccc2c3c1O[C@H]1[C@@H](O)C=C[C@H]4[C@@H](C2)N(C)CC[C@@]341`, the Ki was 1600 nM. In the case of `CN1CC[C@]23c4c5ccc(Nc6ccccc6)c4O[C@H]2[C@@H](O)C=C[C@H]3[C@H]1C5`, the Ki is reported as 1500 nM. `CN1CC[C@]23c4c5ccc(N)c4O[C@H]2[C@@H](O)C=C[C@H]3[C@H]1C5` gave a Ki of 2400 nM. `CNc1ccc2c3c1O[C@H]1[C@@H](O)C=C[C@H]4[C@@H](C2)N(C)CC[C@@]341` gave a Ki of 5700 nM. `CN1CC[C@]23c4c5ccc(NCc6ccccc6)c4O[C@H]2[C@@H](O)C=C[C@H]3[C@H]1C5` gave a Ki of 5500 nM.
